In patent US9586945B2, “Aminochromane, aminothiochromane and amino-1,2,3,4-tetrahydroquinoline derivatives, pharmaceutical compositions containing them, and their use in therapy” (AbbVie Deutschland GmbH & Co. KG, priority 2013, dated 2017):

Molecular target: human GlyT1c transporter (Homo sapiens (Human), UniProt P48067)
Experiment: Radioligand binding assay using recombinant CHO cell membranes expressing human GlyT1
Details: examples marked * tested as fumarate salts, read-out: radioligand binding Kiapp

human GlyT1c transporter, sequence (P48067 whole entry): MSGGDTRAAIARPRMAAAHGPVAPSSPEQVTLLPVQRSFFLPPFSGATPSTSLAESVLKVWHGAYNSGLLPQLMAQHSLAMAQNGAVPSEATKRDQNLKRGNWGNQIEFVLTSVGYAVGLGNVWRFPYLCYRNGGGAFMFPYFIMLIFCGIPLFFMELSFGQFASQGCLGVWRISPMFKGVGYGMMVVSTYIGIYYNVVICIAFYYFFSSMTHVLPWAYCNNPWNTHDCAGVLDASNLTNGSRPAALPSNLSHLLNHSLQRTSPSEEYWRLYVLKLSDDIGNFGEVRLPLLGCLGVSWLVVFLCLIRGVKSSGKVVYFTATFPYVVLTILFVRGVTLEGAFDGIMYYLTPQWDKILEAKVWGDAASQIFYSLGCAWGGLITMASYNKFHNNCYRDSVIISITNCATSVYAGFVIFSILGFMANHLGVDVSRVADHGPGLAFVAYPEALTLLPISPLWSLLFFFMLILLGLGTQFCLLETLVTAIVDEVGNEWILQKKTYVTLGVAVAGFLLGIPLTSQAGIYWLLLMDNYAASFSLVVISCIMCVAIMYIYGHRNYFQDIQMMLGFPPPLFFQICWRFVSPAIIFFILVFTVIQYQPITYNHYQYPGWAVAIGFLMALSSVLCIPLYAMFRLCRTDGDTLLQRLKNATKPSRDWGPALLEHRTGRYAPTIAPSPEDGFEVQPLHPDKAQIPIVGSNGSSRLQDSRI

Q: With `CCn1cc(S(=O)(=O)NC2CN(c3cc4c(cc3F)OC[C@@H](N3CCC3)[C@H]4Cc3ccccc3)C2)nn1` (relative stereo) [Example 7, Cis-N-(1-(3-(azetidin-1-yl)-4-benzyl-7-fluorochroman-6-yl)azetidin-3-yl)-1-ethyl-1H-1,2,3-triazole-4-sulfonamide] as the compound, how does the Ki read?
A: ≤ 0.1 µM

Q: For `CCCS(=O)(=O)NC1CN(c2ccc3c(c2)[C@H](Cc2ccccc2)[C@H](N)CO3)C1` (relative stereo) [Example 20, Cis-N-(1-(3-amino-4-benzylchroman-6-yl)azetidin-3-yl)propane-1-sulfonamide], which Ki is on record?
A: ≤ 0.1 µM

Q: With `CCS(=O)(=O)NC1CN(c2cc3c(cc2F)OCC(NC)C3Cc2ccccc2)C1` (single isomer, unassigned) [Example 14a, Cis-N-(1-(4-benzyl-7-fluoro-3-(methylamino)chroman-6-yl)azetidin-3-yl)ethanesulfonamide] as the compound, how does the Ki read?
A: ≤ 0.1 µM

Q: Which Ki does the source give for `CCS(=O)(=O)NC1CN(c2cc3c(cc2F)OCC(NC)C3Cc2ccccc2)C1` (single isomer, unassigned) [Example 14b, trans-N-(1-(4-benzyl-7-fluoro-3-(methylamino)chroman-6-yl)azetidin-3-yl)ethanesulfonamide] here?
A: ≤ 0.1 µM

Q: Which Ki does the source give for `CNC1COc2cc(F)c(N3CC(NS(=O)(=O)c4cn(C)cn4)C3)cc2C1Cc1ccccc1` (single isomer, unassigned) [Example 15a, Cis-N-(1-(4-benzyl-7-fluoro-3-(methylamino)chroman-6-yl)azetidin-3-yl)-1-methyl-1H-imidazole-4-sulfonamide] here?
A: ≤ 0.01 µM

Q: With `CNC1COc2cc(F)c(N3CC(NS(=O)(=O)c4cn(C)cn4)C3)cc2C1Cc1ccccc1` (single isomer, unassigned) [Example 15b, trans-N-(1-(4-benzyl-7-fluoro-3-(methylamino)chroman-6-yl)azetidin-3-yl)-1-methyl-1H-imidazole-4-sulfonamide] as the compound, how does the Ki read?
A: ≤ 0.01 µM

Q: For `CCCS(=O)(=O)NC1CN(c2cc3c(cc2F)OCC(NC)C3Cc2ccccc2)C1` (single isomer, unassigned) [Example 16a, Cis-N-(1-(4-benzyl-7-fluoro-3-(methylamino)chroman-6-yl)azetidin-3-yl)propane-1-sulfonamide], which Ki is on record?
A: ≤ 0.01 µM

Q: Which Ki does the source give for `CCCS(=O)(=O)NC1CN(c2cc3c(cc2F)OCC(NC)C3Cc2ccccc2)C1` (single isomer, unassigned) [Example 16b, trans-N-(1-(4-benzyl-7-fluoro-3-(methylamino)chroman-6-yl)azetidin-3-yl)propane-1-sulfonamide] here?
A: ≤ 0.01 µM

Q: Which Ki does the source give for `CNC1COc2cc(F)c(N3CC(NS(=O)(=O)c4cnn(C)c4)C3)cc2C1Cc1ccccc1` (single isomer, unassigned) [Example 17a, Cis-N-(1-(4-benzyl-7-fluoro-3-(methylamino)chroman-6-yl)azetidin-3-yl)-1-methyl-1H-pyrazole-4-sulfonamide] here?
A: ≤ 0.01 µM

Q: With `CNC1COc2cc(F)c(N3CC(NS(=O)(=O)c4cnn(C)c4)C3)cc2C1Cc1ccccc1` (single isomer, unassigned) [Example 17b, trans-N-(1-(4-benzyl-7-fluoro-3-(methylamino)chroman-6-yl)azetidin-3-yl)-1-methyl-1H-pyrazole-4-sulfonamide] as the compound, how does the Ki read?
A: ≤ 0.01 µM

Q: For `CNC1COc2cc(F)c(N3CC(NS(=O)(=O)c4cn(C)nn4)C3)cc2C1Cc1ccccc1` (single isomer, unassigned) [Example 18a, Cis-N-(1-(4-benzyl-7-fluoro-3-(methylamino)chroman-6-yl)azetidin-3-yl)-1-methyl-1H-1,2,3-triazole-4-sulfonamide], which Ki is on record?
A: ≤ 0.01 µM

Q: Which Ki does the source give for `CNC1COc2cc(F)c(N3CC(NS(=O)(=O)c4cn(C)nn4)C3)cc2C1Cc1ccccc1` (single isomer, unassigned) [Example 18b, trans-N-(1-(4-benzyl-7-fluoro-3-(methylamino)chroman-6-yl)azetidin-3-yl)-1-methyl-1H-1,2,3-triazole-4-sulfonamide] here?
A: ≤ 0.01 µM

Q: Which Ki does the source give for `CNC1COc2cc(F)c(N3CC(NS(=O)(=O)CC4CC4)C3)cc2C1Cc1ccccc1` (single isomer, unassigned) [Example 19a, Cis-N-(1-(4-benzyl-7-fluoro-3-(methylamino)chroman-6-yl)azetidin-3-yl)-1-cyclopropylmethanesulfonamide] here?
A: ≤ 0.01 µM

Q: Which Ki does the source give for `CNC1COc2cc(F)c(N3CC(NS(=O)(=O)CC4CC4)C3)cc2C1Cc1ccccc1` (single isomer, unassigned) [Example 19b, trans-N-(1-(4-benzyl-7-fluoro-3-(methylamino)chroman-6-yl)azetidin-3-yl)-1-cyclopropylmethanesulfonamide] here?
A: ≤ 0.01 µM

Tested on: not listed separately
Experiment: Metabolic stability in human liver microsomes
Assay type: in vitro ADME
Details: 0.5 μM test substance, NADPH, 37° C., scaled microsomal clearance, examples marked * tested as fumarate salts
Method: Metabolic stability was determined as follows:
0.5 μM test substance was preincubated together with human liver microsomes (0.25 mg of microsomal protein/[…]) in 0.05 M potassium phosphate buffer of pH 7.4 in microtiter plates at 37° C. for 5 min. The reaction was started by adding NADPH (1.0 mM). After 0, 5, 10, 15, 20 and 30 min the reaction was stopped and cooled with twice the amount of quench solution consisting of acetonitrile/methanol 1:1, and containing 0.2 μM carbutamide. The samples were frozen until analyzed. The remaining concentration of undegraded test substance was determined by LC MSMS. The half-life (T1/2) was determined from the gradient of the signal of test substance/unit time plot, al-lowing to calculate the half-life of the test substance, assuming first order kinetics, from the de-crease in the concentration of the compound with time. The microsomal clearance (mClint) was calculated as follows: mClint=((ln(2)/t1/2)/Microsomal Protein Concentration (mg/ml))*1000, leading to the unit of uL/min/mg. The scaled clearance (mClin_scaled) was calculated as mCLint_scaled=m CLint*(Microsomal Yield (mg/kg BW))/1000000*60, leading to the units L/hr/kg. The Microsomal Yield is defined by the specifics of the used microsomes. Calculations were modified from references: Di, The Society for Biomolecular Screening, 2003, 453-462; Obach, DMD, 1999 vol 27. N 11, 1350-1359.

Q: For `CCS(=O)(=O)NC1CN(c2cc3c(cc2F)OC[C@H](NC)[C@@H]3Cc2ccccc2)C1` (relative stereo) [Example 14a, Cis-N-(1-(4-benzyl-7-fluoro-3-(methylamino)chroman-6-yl)azetidin-3-yl)ethanesulfonamide], which “human mCl” value is on record?
A: ≦5 L/h/Kg

Q: Which “human mCl” value does the source give for `CCS(=O)(=O)NC1CN(c2cc3c(cc2F)OC[C@H](NC)[C@H]3Cc2ccccc2)C1` (relative stereo) [Example 14b, trans-N-(1-(4-benzyl-7-fluoro-3-(methylamino)chroman-6-yl)azetidin-3-yl)ethanesulfonamide] here?
A: ≦5 L/h/Kg

Q: With `CN[C@H]1COc2cc(F)c(N3CC(NS(=O)(=O)c4cn(C)cn4)C3)cc2[C@H]1Cc1ccccc1` (relative stereo) [Example 15a, Cis-N-(1-(4-benzyl-7-fluoro-3-(methylamino)chroman-6-yl)azetidin-3-yl)-1-methyl-1H-imidazole-4-sulfonamide] as the compound, how does the “human mCl” value read?
A: ≦5 L/h/Kg

Q: For `CN[C@H]1COc2cc(F)c(N3CC(NS(=O)(=O)c4cn(C)cn4)C3)cc2[C@@H]1Cc1ccccc1` (relative stereo) [Example 15b, trans-N-(1-(4-benzyl-7-fluoro-3-(methylamino)chroman-6-yl)azetidin-3-yl)-1-methyl-1H-imidazole-4-sulfonamide], which “human mCl” value is on record?
A: ≦5 L/h/Kg

Q: With `CCCS(=O)(=O)NC1CN(c2cc3c(cc2F)OC[C@H](NC)[C@@H]3Cc2ccccc2)C1` (relative stereo) [Example 16a, Cis-N-(1-(4-benzyl-7-fluoro-3-(methylamino)chroman-6-yl)azetidin-3-yl)propane-1-sulfonamide] as the compound, how does the “human mCl” value read?
A: ≦5 L/h/Kg

Q: For `CCCS(=O)(=O)NC1CN(c2cc3c(cc2F)OC[C@H](NC)[C@H]3Cc2ccccc2)C1` (relative stereo) [Example 16b, trans-N-(1-(4-benzyl-7-fluoro-3-(methylamino)chroman-6-yl)azetidin-3-yl)propane-1-sulfonamide], which “human mCl” value is on record?
A: ≦5 L/h/Kg

Q: For `CN[C@H]1COc2cc(F)c(N3CC(NS(=O)(=O)c4cnn(C)c4)C3)cc2[C@H]1Cc1ccccc1` (relative stereo) [Example 17a, Cis-N-(1-(4-benzyl-7-fluoro-3-(methylamino)chroman-6-yl)azetidin-3-yl)-1-methyl-1H-pyrazole-4-sulfonamide], which “human mCl” value is on record?
A: ≦5 L/h/Kg

Q: With `CN[C@H]1COc2cc(F)c(N3CC(NS(=O)(=O)c4cnn(C)c4)C3)cc2[C@@H]1Cc1ccccc1` (relative stereo) [Example 17b, trans-N-(1-(4-benzyl-7-fluoro-3-(methylamino)chroman-6-yl)azetidin-3-yl)-1-methyl-1H-pyrazole-4-sulfonamide] as the compound, how does the “human mCl” value read?
A: ≦5 L/h/Kg
